Experimental data from patent US20070184102A1, “LATEX OR PSEUDOLATEX COMPOSITIONS, COATINGS AND COATING PROCESSES” (priority 2006, published 2007).
Where two headings read alike, the source gives them in different places.

Legend:
[1] = Protocol: (§1) Aquacoat® ECD was plasticized by stirring with triethyl citrate for 24 hours prior to addition of permeation enhancing agent. The dispersion stability was checked by optical microscopy for aggregation, coagulation or flocculation. Films were cast on Teflon® and cured for 24 hours at 60° C. The cast films were assessed in terms of appearance, transparency, inhomogeneities, or cracks and mechanical properties (semi-quantitative brittleness or flexibility).
[2] = Assessment of cast mixed films (appearance, transparency, inhomogeneities, cracks, brittleness or flexibility); assay type: physicochemical; details: films cast on Teflon, cured 24 hours at 60° C.
Protocol: as §1

[3] = not told, pH 7.4
[4] = 10 to 30% w/w with respect to Aquacoat ECD solids, Aquacoat ECD plasticized with 25% w/w triethyl citrate

Compound | Properties of cast mixed films with Aquacoat ECD [2] | Compatibility with / destabilisation of Aquacoat ECD dispersion [1] | also measured
O=P([O-])([O-])O.[Na+].[Na+] [Disodium Hydrogen Phosphate] | inhomogenous films |  | Compatibility with / destabilisation of Aquacoat ECD dispersion [1, 4]: compatible
[Cl-].[Na+] [Sodium chloride, Sodium Chloride, reference compound] | inhomogenous films, with recrystallisation and cracking |  | Compatibility with / destabilisation of Aquacoat ECD dispersion [1, 4]: destabilized
OC[C@H]1O[C@@](CO)(O[C@H]2O[C@H](CO)[C@@H](O)[C@H](O)[C@H]2O)[C@@H](O)[C@@H]1O [Sucrose] | good films | compatible | 
OC[C@H]1O[C@@H](O[C@H]2[C@H](O)[C@@H](O)C(O)O[C@@H]2CO)[C@H](O)[C@@H](O)[C@H]1O (stereo partly drawn) [lactose, Lactose] | good films | compatible | 
OC[C@@H](O)[C@@H](O)[C@H](O)[C@H](O)CO [mannitol, Mannitol] | good films | compatible | 
OC[C@@H](O)[C@@H](O)[C@H](O)[C@@H](O)CO [sorbitol, Sorbitol] | good films | compatible | 
Hydroxypropylmethylcellulose [reference compound] |  | destabilized | 
Iota carrageenan [Gelcarin® GP379] |  | not destabilized | 
Kappa carrageenan [Gelcarin® GP911] |  | viscous stable dispersions | 
Lambda carrageenan [Viscarin® GP209] |  | viscous stable dispersions | Stability of the aqueous ethylcellulose coating dispersions in presence of the additive [1]: stable
Microcrystalline cellulose-carrageenan [LustreClear® LC103] |  | very viscous destabilised | 
Polyvinyl acetate [Kollicoat® SR 30 D] |  | compatible | 
Polyvinyl alcohol-polyethylene glycol graft copolymer [Kollicoat® IR] |  | compatible in dispersion | Stability of the aqueous ethylcellulose coating dispersions in presence of the additive [1]: did not affect; Effect on water permeability (diffusion coefficient of water) of Aquacoat ECD-based films [3]: significantly increased
Sodium Carboxymethylcellulose [reference compound] |  | destabilized | 
Starch |  | compatible | 
